{"source": "patent US11154619B2", "about": "“Liposomal compositions with light illumination-induced drug release” (Creighton University, priority 2017, dated 2021)", "test_system": "WI26-VA4 cells", "experiment": "Doxorubicin cytotoxicity by MTT cell viability assay, liposomes with or without pre-illumination", "type": "cell-based", "conditions": "total dose of 1 μM; co-incubated with cells for 4 hours; evaluated 48 hours after treatment; no illumination", "experimental": "Studies were performed on the fluorescent marker- or drug-loaded liposomes described above diluted to a concentration of 0.2 mM by total lipids with or without the photosensitizer-peptide conjugate described above at 1:80 to 1:5 molar ratio to total lipids. Optionally, samples were also supplied with antioxidants/reducing agents or other additional substances at different concentrations. Samples were either illuminated as described below or kept for the same time period under different control conditions.\nIllumination of prepared liposomes with or without photosensitizer-peptide conjugate was mostly preformed using a setup that included a halogen utility lamp, a 2-inch thick flowing water filter to cut infrared irradiation above 950 nm and a red optical cast plastic filter (EdmundOptics) to cut off light irradiation below 620 nm (FIG. 1). […]\nRelease of the drug substance (doxorubicin hydrochloride) from the liposomes was done by enhancement of its biological action (cytotoxicity) on cultured WI26-VA4 cells after pre-illuminating liposomes with or without photosensitizer-peptide conjugate in comparison to liposomes at the same dose without pre-illumination, co-incubated with cells for 4 hours. The extent of cell death was evaluated 48 hours after treatment using a MTT cell viability assay.", "note": "Where a name gives a salt, the structure may show the parent alone."}
{"smiles": "COc1cccc2c1C(=O)c1c(O)c3c(c(O)c1C2=O)C[C@@](O)(C(=O)CO)C[C@@H]3O[C@H]1C[C@H](N)[C@H](O)[C@H](C)O1", "note": "[doxorubicin hydrochloride]", "values": [{"measurement": "cell death", "value": "about 60%"}]}
